# Experimental data reported in patent US7973061B2, “Anaplastic lymphoma kinase modulators and methods of use” (Exelixis, Inc., priority 2004, dated 2011).
# Molecular target: T1, ALK (baculovirus expressed human ALK kinase domain F1098-K1410) (Homo sapiens, UniProt Q9UM73)
# T1 construct: human ALK kinase domain F1098-K1410; made in house
# Assay: biochemical
# Details: 1 μM ATP, 4 μM poly-AEKY, 12 nM ALK, 2 hours at ambient temperature; read-out: ALK IC50
# Protocol: Kinase activity and compound inhibition are investigated using one or more of the three assay formats described below. The ATP concentrations for each assay are selected to be close to the Michaelis-Menten constant (KM) for each individual kinase. Dose-response experiments are performed at 10 different inhibitor concentrations in a 384-well plate format. […] Y=Min+(Max−Min)/(1+(X/IC50)^H) Equation (2) Luciferase-Coupled Chemiluminescent Kinase Assay
# ALK biochemical activity was assessed using a Luciferase-Coupled Chemiluminescent Kinase assay (LCCA) format in which kinase activity was measured as the percent ATP remaining following the kinase reaction. ATP remaining after the kinase reaction was detected by luciferase-luciferin-coupled chemiluminescence. […] The mixture was incubated at ambient temperature for 2 hours after which 20 μL luciferase-luciferin mix was added and the chemiluminescent signal read using a Wallac Victor^2 reader. […] Consumption of ATP by ALK can be quantified and utilized as a measure of inhibition of ALK activity by compounds described herein. By employing serial dilutions of compounds to be tested, the ability of test compounds to inhibit ALK activity can be determined.
# T1 sequence (Q9UM73 1098-1410): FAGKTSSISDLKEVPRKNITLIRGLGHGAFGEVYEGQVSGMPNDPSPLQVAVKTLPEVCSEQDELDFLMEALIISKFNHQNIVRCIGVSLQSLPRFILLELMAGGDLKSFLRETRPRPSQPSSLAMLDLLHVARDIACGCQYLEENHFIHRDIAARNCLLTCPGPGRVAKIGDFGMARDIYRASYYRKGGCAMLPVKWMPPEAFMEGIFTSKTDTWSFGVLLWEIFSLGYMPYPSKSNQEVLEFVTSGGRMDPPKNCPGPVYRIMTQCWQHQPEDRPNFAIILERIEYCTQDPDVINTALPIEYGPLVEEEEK
row,Structure (SMILES),IC50 [nM]
1,"C[C@@H]1[C@@H](NC(=O)c2csc(CNC(=O)COc3ccc(OC(F)(F)F)cc3)n2)C[C@H]2C[C@@H]1C2(C)C [Entry 12, 2-({[({4-[(trifluoromethyl)oxy]phenyl}oxy)acetyl]amino}methyl)-N-[(1S,2S,3S,5R)-2,6,6-trimethylbicyclo[3.1.1]hept-3-yl]-1,3-thiazole-4-carboxamide]",< 50
2,"NS(=O)(=O)c1ccc(CCNC(=O)c2csc(CNC(=O)COc3ccc(OC(F)(F)F)cc3)n2)cc1 [Entry 13, N-{2-[4-(aminosulfonyl)phenyl]ethyl}-2-({[({4-[(trifluoromethyl)oxy]phenyl}oxy)acetyl]amino}methyl)-1,3-thiazole-4-carboxamide]",< 50
3,"O=C(COc1ccc(OC(F)(F)F)cc1)NCc1nc(C(=O)NCCc2cccc(F)c2)cs1 [Entry 14, N-[2-(3-fluorophenyl)ethyl]-2-({[({4-[(trifluoromethyl)oxy]phenyl}oxy)acetyl]amino}methyl)-1,3-thiazole-4-carboxamide]",< 50
4,"Cc1ccccc1CCNC(=O)c1csc(CNC(=O)COc2ccc(OC(F)(F)F)cc2)n1 [Entry 15, N-[2-(2-methylphenyl)ethyl]-2-({[({4-[(trifluoromethyl)oxy]phenyl}oxy)acetyl]amino}methyl)-1,3-thiazole-4-carboxamide]",< 50
5,"O=C(COc1ccc(I)cc1)NCc1nc(C(=O)NCCc2cccc(Cl)c2)cs1 [Entry 16, N-[2-(3-chlorophenyl)ethyl]-2-[({[(4-iodophenyl)oxy]acetyl}amino)methyl]-1,3-thiazole-4-carboxamide]",< 50
6,"COc1ccccc1CNC(=O)c1csc(CNC(=O)COc2ccc(OC(F)(F)F)cc2)n1 [Entry 17, N-{[2-(methyloxy)phenyl]methyl}-2-({[({4-[(trifluoromethyl)oxy]phenyl}oxy)acetyl]amino}methyl)-1,3-thiazole-4-carboxamide]",< 50
7,"O=C(COc1ccc(OC(F)(F)F)cc1)NCc1nc(C(=O)NCC(c2ccccc2)c2ccccc2)cs1 [Entry 18, N-(2,2-diphenylethyl)-2-({[({4-[(trifluoromethyl)oxy]phenyl}oxy)acetyl]amino}methyl)-1,3-thiazole-4-carboxamide]",< 50
8,"O=C(COc1ccc(OC(F)(F)F)cc1)NCc1nc(C(=O)NCCc2cccs2)cs1 [Entry 19, N-[2-(2-thienyl)ethyl]-2-({[({4-[(trifluoromethyl)oxy]phenyl}oxy)acetyl]amino}methyl)-1,3-thiazole-4-carboxamide]",< 50
9,"CCOc1cc(CCNC(=O)c2csc(CNC(=O)COc3ccc(OC(F)(F)F)cc3)n2)ccc1OC [Entry 20, N-{2-[3-(ethyloxy)-4-(methyloxy)phenyl]ethyl}-2-({[({4-[(trifluoromethyl)oxy]phenyl}oxy)acetyl]amino}methyl)-1,3-thiazole-4-carboxamide]",< 50
10,"Cc1cccc(CCNC(=O)c2csc(CNC(=O)COc3ccc(OC(F)(F)F)cc3)n2)c1 [Entry 21, N-[2-(3-methylphenyl)ethyl]-2-({[({4-[(trifluoromethyl)oxy]phenyl}oxy)acetyl]amino}methyl)-1,3-thiazole-4-carboxamide]",< 50
11,"COc1ccccc1CNC(=O)c1csc(CNC(=O)COc2ccc(C(C)(C)C)cc2)n1 [Entry 22, 2-{[({[4-(1,1-dimethylethyl)phenyl]oxy}acetyl)amino]methyl}-N-{[2-(methyloxy)phenyl]methyl}-1,3-thiazole-4-carboxamide]",< 50
12,"O=C(COc1ccc(OC(F)(F)F)cc1)NCc1nc(C(=O)NC23C[C@H]4C[C@@H](C2)C[C@@H](C3)C4)cs1 [Entry 23, N-tricyclo[3.3.1.1~3,7~]dec-1-yl-2-({[({4-[(trifluoromethyl)oxy]phenyl}oxy)acetyl]amino}methyl)-1,3-thiazole-4-carboxamide]",< 50
13,"O=C(COc1ccc(OC(F)(F)F)cc1)NCc1nc(C(=O)NCCc2ccc(F)cc2)cs1 [Entry 24, N-[2-(4-fluorophenyl)ethyl]-2-({[({4-[(trifluoromethyl)oxy]phenyl}oxy)acetyl]amino}methyl)-1,3-thiazole-4-carboxamide]",< 50
14,"CC(C)c1ccc(NC(=O)NCc2nc(C(=O)NCCc3cccc(Cl)c3)cs2)cc1 [Entry 25, N-[2-(3-chlorophenyl)ethyl]-2-{[({[4-(1-methylethyl)phenyl]amino}carbonyl)amino]methyl}-1,3-thiazole-4-carboxamide]",< 50
15,"C[C@H](CNC(=O)c1csc(CNC(=O)COc2ccc(OC(F)(F)F)cc2)n1)c1ccccc1 [Entry 26, N-[(2S)-2-phenylpropyl]-2-({[({4-[(trifluoromethyl)oxy]phenyl}oxy)acetyl]amino}methyl)-1,3-thiazole-4-carboxamide]",< 50
16,"CC(C)c1ccc(NC(=O)NCc2nc(C(=O)NCCc3ccccc3F)cs2)cc1 [Entry 27, N-[2-(2-fluorophenyl)ethyl]-2-{[({[4-(1-methylethyl)phenyl]amino}carbonyl)amino]methyl}-1,3-thiazole-4-carboxamide]",< 50
17,"CCOc1cccc(CCNC(=O)c2csc(CNC(=O)COc3ccc(OC(F)(F)F)cc3)n2)c1 [Entry 28, N-{2-[3-(ethyloxy)phenyl]ethyl}-2-({[({4-[(trifluoromethyl)oxy]phenyl}oxy)acetyl]amino}methyl)-1,3-thiazole-4-carboxamide]",50 to 500
18,"COc1ccccc1CNC(=O)c1csc(CNC(=O)Nc2ccc(C(C)C)cc2)n1 [Entry 29, 2-{[({[4-(1-methylethyl)phenyl]amino}carbonyl)amino]methyl}-N-{[2-(methyloxy)phenyl]methyl}-1,3-thiazole-4-carboxamide]",50 to 500
19,"COc1cc(CCNC(=O)c2csc(CNC(=O)COc3ccc(OC(F)(F)F)cc3)n2)cc(OC)c1 [Entry 30, N-{2-[3,5-bis(methyloxy)phenyl]ethyl}-2-({[({4-[(trifluoromethyl)oxy]phenyl}oxy)acetyl]amino}methyl)-1,3-thiazole-4-carboxamide]",50 to 500
20,"O=C(COc1ccc(OC(F)(F)F)cc1)NCc1nc(C(=O)NCCc2cccc(Cl)c2)co1 [Entry 31, N-[2-(3-chlorophenyl)ethyl]-2-({[({4-[(trifluoromethyl)oxy]phenyl}oxy)acetyl]amino}methyl)-1,3-oxazole-4-carboxamide]",50 to 500

# Results, then the compound that gave them:
row,IC50 [nM],Structure (SMILES)
1,< 50,"CC(NC(=O)COc1ccc(OC(F)(F)F)cc1)c1nc(C(=O)NCCc2cccc(Cl)c2)cs1 (stereo not drawn) [Entry 1, N-[2-(3-chlorophenyl)ethyl]-2-(1-{[({4-[(trifluoromethyl)oxy]phenyl}oxy)acetyl]amino}ethyl)-1,3-thiazole-4-carboxamide]"
2,< 50,"O=C(COc1ccc(OC(F)(F)F)cc1)NCc1nc(C(=O)NCCc2cccc(Cl)c2)cs1 [Entry 2, N-[2-(3-chlorophenyl)ethyl]-2-({[({4-[(trifluoromethyl)oxy]phenyl}oxy)acetyl]amino}methyl)-1,3-thiazole-4-carboxamide]"
3,< 50,"O=C(COc1ccc(OC(F)(F)F)cc1)NCc1nc(C(=O)N2Cc3ccccc3C2)cs1 [Entry 3, N-{[4-(1,3-dihydro-2H-isoindol-2-ylcarbonyl)-1,3-thiazol-2-yl]methyl}-2-({4-[(trifluoromethyl)oxy]phenyl}oxy)acetamide]"
4,< 50,"O=C(COc1ccc(OC(F)(F)F)cc1)NCc1nc(C(=O)NCC2c3ccccc3CCc3ccccc32)cs1 [Entry 4, N-(10,11-dihydro-5H-dibenzo[a,d]cyclohepten-5-ylmethyl)-2-({[({4-[(trifluoromethyl)oxy]phenyl}oxy)acetyl]amino}methyl)-1,3-thiazole-4-carboxamide]"
5,< 50,"O=C(COc1ccc(OC(F)(F)F)cc1)NCc1nc(C(=O)NCCc2ccccc2F)cs1 [Entry 5, N-[2-(2-fluorophenyl)ethyl]-2-({[({4-[(trifluoromethyl)oxy]phenyl}oxy)acetyl]amino}methyl)-1,3-thiazole-4-carboxamide]"
6,< 50,"C[C@@H](CNC(=O)c1csc(CNC(=O)COc2ccc(OC(F)(F)F)cc2)n1)c1ccccc1 [Entry 6, N-[(2R)-2-phenylpropyl]-2-({[({4-[(trifluoromethyl)oxy]phenyl}oxy)acetyl]amino}methyl)-1,3-thiazole-4-carboxamide]"
7,< 50,"CC(CNC(=O)c1csc(CNC(=O)COc2ccc(OC(F)(F)F)cc2)n1)c1ccccc1 (stereo not drawn) [Entry 7, N-(2-phenylpropyl)-2-({[({4-[(trifluoromethyl)oxy]phenyl}oxy)acetyl]amino}methyl)-1,3-thiazole-4-carboxamide]"
8,< 50,"CCc1ccc(NC(=O)NCc2nc(C(=O)NCCc3cccc(Cl)c3)cs2)cc1 [Entry 8, N-[2-(3-chlorophenyl)ethyl]-2-[({[(4-ethylphenyl)amino]carbonyl}amino)methyl]-1,3-thiazole-4-carboxamide]"
9,< 50,"COc1ccc(CCNC(=O)c2csc(CNC(=O)COc3ccc(OC(F)(F)F)cc3)n2)cc1 [Entry 9, N-{2-[4-(methyloxy)phenyl]ethyl}-2-({[({4-[(trifluoromethyl)oxy]phenyl}oxy)acetyl]amino}methyl)-1,3-thiazole-4-carboxamide]"
10,< 50,"COc1cccc(CNC(=O)c2csc(CNC(=O)COc3ccc(OC(F)(F)F)cc3)n2)c1OC [Entry 11, N-{[2,3-bis(methyloxy)phenyl]methyl}-2-({[({4-[(trifluoromethyl)oxy]phenyl}oxy)acetyl]amino}methyl)-1,3-thiazole-4-carboxamide]"
